Laboratory results: patent publication EP3714904B1, “IMINODIACETIC ACID SUBSTITUTED CYCLODEXTRINS AS POTENTIATORS OF BETA-LACTAM ANTIBIOTICS” (NATIONAL CENTER FOR SCIENTIFIC RESEARCH "DEMOKRITOS" (NCSRD), priority 2019, dated 2020)

System: Klebsiella pneumoniae
Experiment: MIC of β-lactams alone or with 50 µM IDACYD against clinical isolates
Format: cell-based
Protocol: Further the in-vitro inhibitory activity of IDACYDs was tested against highly resistant pathogens. […] Table 2: Collection of clinical isolates used for in-vitro evaluation

[1] = isolate LA-34 (VIM, CMY), first entry of Table 3
[2] = isolate LA-34 (VIM, CMY), second entry of Table 3
[3] = isolate LAR-26I/15 (NDM, VIM, CTXM)
[4] = isolate LAR-37II/15 (NDM, VIM, CTXM)
[5] = isolate LAR-38I/15 (VIM, NDM, CTXM)

CO[C@@H]1[C@@H](OC)[C@H]2O[C@H]3[C@H](OC)[C@@H](OC)[C@@H](O[C@H]4[C@H](OC)[C@@H](OC)[C@@H](O[C@H]5[C@H](OC)[C@@H](OC)[C@@H](O[C@H]6[C@H](OC)[C@@H](OC)[C@@H](O[C@H]7[C@H](OC)[C@@H](OC)[C@@H](O[C@H]8[C@H](OC)[C@@H](OC)[C@@H](O[C@@H]1[C@@H](CN(CC(=O)O)CC(=O)O)O2)O[C@@H]8CN(CC(=O)O)CC(=O)O)O[C@@H]7CN(CC(=O)O)CC(=O)O)O[C@@H]6CN(CC(=O)O)CC(=O)O)O[C@@H]5CN(CC(=O)O)CC(=O)O)O[C@@H]4CN(CC(=O)O)CC(=O)O)O[C@@H]3CN(CC(=O)O)CC(=O)O [β-IDACYD]
Imipenem /50µM β-IDACYD MIC (isolate 6/100 (VIM)): 1 µg/mL | Meropenem /50µM β-IDACYD MIC (isolate 6/100 (VIM)): 1 µg/mL | Imipenem /50µM β-IDACYD MIC (isolate 2489 (NDM)): 0.5 µg/mL | Meropenem /50µM β-IDACYD MIC (isolate 2489 (NDM)): 1 µg/mL | Imipenem /50µM β-IDACYD MIC (isolate 2685 (VIM, CMY, CTXM)): 0.5 µg/mL | Meropenem /50µM β-IDACYD MIC (isolate 2685 (VIM, CMY, CTXM)): <0.25 µg/mL | Ceftazidime/ 50µM β-IDACYD MIC (isolate ALX-47 (OXA-48,CTX-M)): >256 µg/mL | Imipenem /50µM β-IDACYD MIC (isolate ALX-47 (OXA-48,CTX-M)): 4 µg/mL | Meropenem /50µM β-IDACYD MIC (isolate ALX-47 (OXA-48,CTX-M)): 4 µg/mL | Imipenem /50µM β-IDACYD MIC (isolate ESDY-1780 (VIM, KPC)): 8 µg/mL | Meropenem /50µM β-IDACYD MIC (isolate ESDY-1780 (VIM, KPC)): 32 µg/mL | Imipenem /50µM β-IDACYD MIC (isolate ESDY-2681 (VIM-27)): <0.125 µg/mL | Meropenem /50µM β-IDACYD MIC (isolate ESDY-2681 (VIM-27)): <0.25 µg/mL | Ceftazidime/ 50µM β-IDACYD MIC (isolate ESDY-5742 (IMP)): 1 µg/mL | Imipenem /50µM β-IDACYD MIC (isolate ESDY-5742 (IMP)): <0.125 µg/mL | Meropenem /50µM β-IDACYD MIC (isolate ESDY-5742 (IMP)): <0.25 µg/mL | Imipenem /50µM β-IDACYD MIC (isolate EY-20S (CMY, SHV)): 2 µg/mL | Meropenem /50µM β-IDACYD MIC (isolate EY-20S (CMY, SHV)): 4 µg/mL | Imipenem /50µM β-IDACYD MIC (isolate IT-17829 (CTXM, SHV)): 0.5 µg/mL | Meropenem /50µM β-IDACYD MIC (isolate IT-17829 (CTXM, SHV)): 32 µg/mL | Imipenem /50µM β-IDACYD MIC (isolate L078/11 (KPC)): 16 µg/mL | Meropenem /50µM β-IDACYD MIC (isolate L078/11 (KPC)): 64 µg/mL | Imipenem /50µM β-IDACYD MIC (isolate LA-26 (NDM)): <0.125 µg/mL | Meropenem /50µM β-IDACYD MIC (isolate LA-26 (NDM)): <0.25 µg/mL | Imipenem /50µM β-IDACYD MIC (isolate LA-27 (NDM, CTXM)): <0.125 µg/mL | Meropenem /50µM β-IDACYD MIC (isolate LA-27 (NDM, CTXM)): <0.25 µg/mL | Ceftazidime/ 50µM β-IDACYD MIC (isolate LA-28 (NDM, CTXM)): 32 µg/mL | Imipenem /50µM β-IDACYD MIC (isolate LA-28 (NDM, CTXM)): <0.125 µg/mL | Meropenem /50µM β-IDACYD MIC (isolate LA-28 (NDM, CTXM)): <0.25 µg/mL | Imipenem /50µM β-IDACYD MIC [1]: <0.5 µg/mL | Meropenem /50µM β-IDACYD MIC [1]: 0.25 µg/mL | Imipenem /50µM β-IDACYD MIC [2]: 0.25 µg/mL | Meropenem /50µM β-IDACYD MIC [2]: 0.25 µg/mL | Imipenem /50µM β-IDACYD MIC (isolate LA-38 (NDM)): <0.125 µg/mL | Meropenem /50µM β-IDACYD MIC (isolate LA-38 (NDM)): 0.5 µg/mL | Ceftazidime/ 50µM β-IDACYD MIC (isolate LA-82/16 (VIM, SHV)): 32 µg/mL | Imipenem /50µM β-IDACYD MIC (isolate LA-82/16 (VIM, SHV)): <0.125 µg/mL | Meropenem /50µM β-IDACYD MIC (isolate LA-82/16 (VIM, SHV)): 0.25 µg/mL | Ceftazidime/ 50µM β-IDACYD MIC (isolate LA-109/16 (VIM, CTXM)): 32 µg/mL | Imipenem /50µM β-IDACYD MIC (isolate LA-109/16 (VIM, CTXM)): <0.125 µg/mL | Meropenem /50µM β-IDACYD MIC (isolate LA-109/16 (VIM, CTXM)): <0.25 µg/mL | Imipenem /50µM β-IDACYD MIC (isolate LA-419/16 (NDM,CTXM)): <0.125 µg/mL | Meropenem /50µM β-IDACYD MIC (isolate LA-419/16 (NDM,CTXM)): <0.25 µg/mL | Imipenem /50µM β-IDACYD MIC (isolate LA-470/17 (NDM)): 8 µg/mL | Meropenem /50µM β-IDACYD MIC (isolate LA-470/17 (NDM)): 32 µg/mL | Imipenem /50µM β-IDACYD MIC [3]: 0.125 µg/mL | Meropenem /50µM β-IDACYD MIC [3]: 0.5 µg/mL | Imipenem /50µM β-IDACYD MIC [4]: <0.125 µg/mL | Meropenem /50µM β-IDACYD MIC [4]: <0.25 µg/mL | Imipenem /50µM β-IDACYD MIC [5]: <0.125 µg/mL | Meropenem /50µM β-IDACYD MIC [5]: <0.25 µg/mL | Imipenem /50µM β-IDACYD MIC (isolate LAR-40II/15 (KPC)): 16 µg/mL | Meropenem /50µM β-IDACYD MIC (isolate LAR-40II/15 (KPC)): 64 µg/mL
